Experimental data from patent US4725683A, “Fluorophenoxyphenoxypropionates and derivatives thereof” (The Dow Chemical Company, priority 1985, dated 1988).

Legend:
Assay in all cases: Selective postemergence, track sprayer
Type in all cases: in vivo
Annual Bluegrass = test system: Annual Bluegrass
Method in brief: (§1)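 Potted grasses about 10 cm tall were treated postemergence with a track sprayer delivering the chosen dosages in 280.6 L/hectare of water containing 0.1% Tween-20. Pots sprayed without toxicant served as controls. Growth was rated two weeks after treatment on a 0–100 scale (0 no effect, 100 complete kill).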

Blackgrass = test system: Blackgrass
Method in brief: as §1

Broadleaf Signalgrass = test system: Broadleaf Signalgrass
Method in brief: as §1

Fall Panicum = test system: Fall Panicum
Method in brief: as §1

Goosegrass = test system: Goosegrass
Method in brief: as §1

Red Top = test system: Red Top
Method in brief: as §1

Sprangletop = test system: Sprangletop
Method in brief: as §1

Yellow Foxtail = test system: Yellow Foxtail
Method in brief: as §1

Question: Which “Percent Control” value (Annual Bluegrass; 0.0011 kgs/hectare) does the source give for COC(=O)C(C)Oc1ccc(Oc2ccc(Br)cc2F)cc1 (racemic) [Example 4-Bromo-, 2-[4-(4-bromo-2-fluorophenoxy)phenoxy]propionic acid methyl ester] here?
Answer: 0%

Question: And the “Percent Control” value (Annual Bluegrass; 0.0023 kgs/hectare)?
Answer: 0%

Question: What about the “Percent Control” value (Annual Bluegrass; 0.0045 kgs/hectare) of the same molecule?
Answer: 0%

Question: And the “Percent Control” value (Annual Bluegrass; 0.009 kgs/hectare)?
Answer: 0%

Question: And the “Percent Control” value (Annual Bluegrass; 0.018 kgs/hectare)?
Answer: 0%

Question: What about the “Percent Control” value (Annual Bluegrass; 0.035 kgs/hectare) of the same molecule?
Answer: 0%

Question: And the “Percent Control” value (Annual Bluegrass; 0.07 kgs/hectare)?
Answer: 0%

Question: What about the “Percent Control” value (Annual Bluegrass; 0.14 kgs/hectare) of the same molecule?
Answer: 0%

Question: And the “Percent Control” value (Annual Bluegrass; 0.28 kgs/hectare)?
Answer: 0%

Question: What about the “Percent Control” value (Annual Bluegrass; 0.56 kgs/hectare) of the same molecule?
Answer: 0%

Question: What about the “Percent Control” value (Blackgrass; 0.0011 kgs/hectare) of the same molecule?
Answer: 30%

Question: What about the “Percent Control” value (Blackgrass; 0.0023 kgs/hectare) of the same molecule?
Answer: 50%

Question: And the “Percent Control” value (Blackgrass; 0.0045 kgs/hectare)?
Answer: 50%

Question: What about the “Percent Control” value (Blackgrass; 0.009 kgs/hectare) of the same molecule?
Answer: 100%

Question: And the “Percent Control” value (Blackgrass; 0.035 kgs/hectare)?
Answer: 100%

Question: What about the “Percent Control” value (Blackgrass; 0.07 kgs/hectare) of the same molecule?
Answer: 100%

Question: What about the “Percent Control” value (Blackgrass; 0.14 kgs/hectare) of the same molecule?
Answer: 100%

Question: What about the “Percent Control” value (Blackgrass; 0.28 kgs/hectare) of the same molecule?
Answer: 100%

Question: And the “Percent Control” value (Blackgrass; 0.56 kgs/hectare)?
Answer: 100%

Question: And the “Percent Control” value (Broadleaf Signalgrass; 0.0011 kgs/hectare)?
Answer: 70%

Question: And the “Percent Control” value (Broadleaf Signalgrass; 0.0023 kgs/hectare)?
Answer: 90%

Question: And the “Percent Control” value (Broadleaf Signalgrass; 0.0045 kgs/hectare)?
Answer: 80%

Question: What about the “Percent Control” value (Broadleaf Signalgrass; 0.009 kgs/hectare) of the same molecule?
Answer: 100%

Question: And the “Percent Control” value (Broadleaf Signalgrass; 0.035 kgs/hectare)?
Answer: 100%

Question: What about the “Percent Control” value (Broadleaf Signalgrass; 0.07 kgs/hectare) of the same molecule?
Answer: 100%

Question: And the “Percent Control” value (Broadleaf Signalgrass; 0.14 kgs/hectare)?
Answer: 100%

Question: And the “Percent Control” value (Broadleaf Signalgrass; 0.28 kgs/hectare)?
Answer: 100%

Question: What about the “Percent Control” value (Broadleaf Signalgrass; 0.56 kgs/hectare) of the same molecule?
Answer: 100%

Question: What about the “Percent Control” value (Fall Panicum; 0.0011 kgs/hectare) of the same molecule?
Answer: 0%

Question: What about the “Percent Control” value (Fall Panicum; 0.0023 kgs/hectare) of the same molecule?
Answer: 20%

Question: What about the “Percent Control” value (Fall Panicum; 0.0045 kgs/hectare) of the same molecule?
Answer: 50%

Question: What about the “Percent Control” value (Fall Panicum; 0.009 kgs/hectare) of the same molecule?
Answer: 80%

Question: And the “Percent Control” value (Fall Panicum; 0.035 kgs/hectare)?
Answer: 100%

Question: What about the “Percent Control” value (Fall Panicum; 0.14 kgs/hectare) of the same molecule?
Answer: 100%

Question: What about the “Percent Control” value (Fall Panicum; 0.28 kgs/hectare) of the same molecule?
Answer: 100%

Question: What about the “Percent Control” value (Fall Panicum; 0.56 kgs/hectare) of the same molecule?
Answer: 100%

Question: What about the “Percent Control” value (Goosegrass; 0.0011 kgs/hectare) of the same molecule?
Answer: 0%

Question: And the “Percent Control” value (Goosegrass; 0.0023 kgs/hectare)?
Answer: 0%

Question: And the “Percent Control” value (Goosegrass; 0.0045 kgs/hectare)?
Answer: 30%

Question: And the “Percent Control” value (Goosegrass; 0.009 kgs/hectare)?
Answer: 20%

Question: And the “Percent Control” value (Goosegrass; 0.035 kgs/hectare)?
Answer: 80%

Question: And the “Percent Control” value (Goosegrass; 0.07 kgs/hectare)?
Answer: 100%

Question: And the “Percent Control” value (Goosegrass; 0.14 kgs/hectare)?
Answer: 100%

Question: And the “Percent Control” value (Goosegrass; 0.28 kgs/hectare)?
Answer: 100%

Question: What about the “Percent Control” value (Goosegrass; 0.56 kgs/hectare) of the same molecule?
Answer: 100%

Question: And the “Percent Control” value (Red Top; 0.0011 kgs/hectare)?
Answer: 0%

Question: What about the “Percent Control” value (Red Top; 0.0023 kgs/hectare) of the same molecule?
Answer: 0%

Question: And the “Percent Control” value (Red Top; 0.0045 kgs/hectare)?
Answer: 0%

Question: And the “Percent Control” value (Red Top; 0.009 kgs/hectare)?
Answer: 20%

Question: And the “Percent Control” value (Red Top; 0.035 kgs/hectare)?
Answer: 50%

Question: And the “Percent Control” value (Red Top; 0.07 kgs/hectare)?
Answer: 80%

Question: And the “Percent Control” value (Red Top; 0.14 kgs/hectare)?
Answer: 90%

Question: What about the “Percent Control” value (Red Top; 0.28 kgs/hectare) of the same molecule?
Answer: 100%

Question: And the “Percent Control” value (Red Top; 0.56 kgs/hectare)?
Answer: 100%

Question: And the “Percent Control” value (Sprangletop; 0.0011 kgs/hectare)?
Answer: 0%

Question: And the “Percent Control” value (Sprangletop; 0.0023 kgs/hectare)?
Answer: 20%

Question: What about the “Percent Control” value (Sprangletop; 0.0045 kgs/hectare) of the same molecule?
Answer: 95%

Question: What about the “Percent Control” value (Sprangletop; 0.009 kgs/hectare) of the same molecule?
Answer: 100%

Question: And the “Percent Control” value (Sprangletop; 0.035 kgs/hectare)?
Answer: 100%

Question: What about the “Percent Control” value (Sprangletop; 0.14 kgs/hectare) of the same molecule?
Answer: 100%

Question: And the “Percent Control” value (Sprangletop; 0.28 kgs/hectare)?
Answer: 100%

Question: And the “Percent Control” value (Sprangletop; 0.56 kgs/hectare)?
Answer: 100%

Question: What about the “Percent Control” value (Yellow Foxtail; 0.0011 kgs/hectare) of the same molecule?
Answer: 0%

Question: What about the “Percent Control” value (Yellow Foxtail; 0.0023 kgs/hectare) of the same molecule?
Answer: 0%

Question: What about the “Percent Control” value (Yellow Foxtail; 0.0045 kgs/hectare) of the same molecule?
Answer: 0%

Question: What about the “Percent Control” value (Yellow Foxtail; 0.009 kgs/hectare) of the same molecule?
Answer: 40%

Question: And the “Percent Control” value (Yellow Foxtail; 0.035 kgs/hectare)?
Answer: 80%

Question: What about the “Percent Control” value (Yellow Foxtail; 0.07 kgs/hectare) of the same molecule?
Answer: 100%

Question: And the “Percent Control” value (Yellow Foxtail; 0.14 kgs/hectare)?
Answer: 100%

Question: And the “Percent Control” value (Yellow Foxtail; 0.28 kgs/hectare)?
Answer: 100%

Question: And the “Percent Control” value (Yellow Foxtail; 0.56 kgs/hectare)?
Answer: 100%
